How the values were obtained:
JeKo-1 [1] = test: Antiproliferative activity against human JeKo1 assessed as combination index at 10 uM incubated for 72 hrs in presence of GI50 dose of Lapatinib by CellTiter-Glo luminescence assay; type: functional
MIA PaCa-2 [2] = test: Antiproliferative activity against human MIAPaCa2 assessed as combination index at 20 uM incubated for 72 hrs in presence of GI50 dose of Lapatinib by CellTiter-Glo luminescence assay; type: functional
DU-145 = test: Antiproliferative activity against human DU145 assessed as combination index at 20 uM incubated for 72 hrs in presence of GI50 dose of Lapatinib by CellTiter-Glo luminescence assay; type: functional
MIA PaCa-2 [3] = test: Antiproliferative activity against human MIAPaCa2 assessed as combination index at 20 uM incubated for 72 hrs in presence of GI50 dose of GDC-0941 by CellTiter-Glo luminescence assay; type: functional
PC-3 [4] = test: Antiproliferative activity against human PC3 assessed as combination index at 20 uM incubated for 72 hrs in presence of GI50 dose of Bortezomib by CellTiter-Glo luminescence assay; type: functional
MDA-MB-231 [5] = test: Antiproliferative activity against human MDA-MB-231 assessed as combination index at 20 uM incubated for 72 hrs in presence of GI50 dose of GDC-0941 by CellTiter-Glo luminescence assay; type: functional
CAKI-1 = test: Antiproliferative activity against human CAKI-1 cells incubated for 72 hrs by CellTiter-Glo luminescence assay; type: functional; settings: CAKI-1, 72 h
PC-3 [6] = test: Antiproliferative activity against human PC3 cells incubated for 72 hrs by CellTiter-Glo luminescence assay; type: functional; settings: PC-3, 72 h
MIA PaCa-2 [7] = test: Antiproliferative activity against human MIAPaCa2 cells incubated for 72 hrs by CellTiter-Glo luminescence assay; type: functional; settings: MIA PaCa-2, 72 h
NCI-H522 = test: Antiproliferative activity against human NCI-H522 cells incubated for 72 hrs by CellTiter-Glo luminescence assay; type: functional; settings: NCI-H522, 72 h
U-87 MG [8] = test: Antiproliferative activity against human U87MG cells incubated for 72 hrs by CellTiter-Glo luminescence assay; type: functional, U-87MG ATCC
U-251 = test: Antiproliferative activity against human U251 cells incubated for 72 hrs by CellTiter-Glo luminescence assay; type: functional; settings: U-251, 72 h
SK-ES1 = test: Antiproliferative activity against human SK-ES-1 cells incubated for 72 hrs by CellTiter-Glo luminescence assay; type: functional; settings: SK-ES1, 72 h
T84 = test: Antiproliferative activity against human T84 cells incubated for 72 hrs by CellTiter-Glo luminescence assay; type: functional; settings: T84, 72 h
SW-620 = test: Antiproliferative activity against human SW620 cells incubated for 72 hrs by CellTiter-Glo luminescence assay; type: functional; settings: SW-620, 72 h
NAMALVA = test: Antiproliferative activity against human NAMALWA cells incubated for 72 hrs by CellTiter-Glo luminescence assay; type: functional
MDA-MB-231 [9] = test: Antiproliferative activity against human MDA-MB-231 cells incubated for 72 hrs by CellTiter-Glo luminescence assay; type: functional; settings: MDA-MB-231, 72 h
MCF7 = test: Antiproliferative activity against human MCF7 cells incubated for 72 hrs by CellTiter-Glo luminescence assay; type: functional; settings: MCF7, 72 h
[10] = Antiproliferative activity against human MDA-MB-175 cells incubated for 72 hrs by CellTiter-Glo luminescence assay; type: functional
HL-60 = test: Antiproliferative activity against human HL60 cells incubated for 72 hrs by CellTiter-Glo luminescence assay; type: functional; settings: HL-60, 72 h
[11] = biological target: T1, Receptor-type tyrosine-protein kinase FLT3 (Homo sapiens, UniProt P36888); test: Inhibition of human FLT3 using EAIYAAPFAKKK as substrate incubated for 60 mins by fluorescence based assay
T1 sequence (P36888 whole entry): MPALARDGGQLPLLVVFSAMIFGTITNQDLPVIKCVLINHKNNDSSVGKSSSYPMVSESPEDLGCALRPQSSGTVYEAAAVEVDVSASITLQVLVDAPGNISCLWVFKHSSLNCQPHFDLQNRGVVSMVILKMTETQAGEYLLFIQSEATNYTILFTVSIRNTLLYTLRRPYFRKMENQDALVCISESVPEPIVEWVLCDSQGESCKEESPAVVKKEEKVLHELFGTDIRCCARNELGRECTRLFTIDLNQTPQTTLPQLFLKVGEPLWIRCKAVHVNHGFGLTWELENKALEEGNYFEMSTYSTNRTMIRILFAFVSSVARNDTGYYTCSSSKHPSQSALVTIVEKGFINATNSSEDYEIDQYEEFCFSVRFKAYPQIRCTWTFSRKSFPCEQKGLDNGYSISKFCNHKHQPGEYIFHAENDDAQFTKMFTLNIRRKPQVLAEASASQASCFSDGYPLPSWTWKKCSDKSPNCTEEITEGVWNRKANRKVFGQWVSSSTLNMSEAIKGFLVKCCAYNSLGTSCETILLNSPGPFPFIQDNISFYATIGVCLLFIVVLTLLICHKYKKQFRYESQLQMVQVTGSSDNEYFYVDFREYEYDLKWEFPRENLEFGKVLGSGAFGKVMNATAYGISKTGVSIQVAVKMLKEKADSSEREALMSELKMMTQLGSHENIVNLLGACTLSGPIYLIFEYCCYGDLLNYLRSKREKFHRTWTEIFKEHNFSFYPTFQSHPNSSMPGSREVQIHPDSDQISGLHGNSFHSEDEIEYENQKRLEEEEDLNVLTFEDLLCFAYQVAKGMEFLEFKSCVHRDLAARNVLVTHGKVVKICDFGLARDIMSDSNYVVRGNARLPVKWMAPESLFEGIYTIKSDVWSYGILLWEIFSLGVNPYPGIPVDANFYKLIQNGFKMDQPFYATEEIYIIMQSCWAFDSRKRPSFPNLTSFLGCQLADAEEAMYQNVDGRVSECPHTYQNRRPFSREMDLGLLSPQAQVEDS

[12] = biological target: Serine/threonine-protein kinase pim-1 (Homo sapiens, UniProt P11309); test: Inhibition of PIM1 in human NCI-H1299 cells assessed as reduction in BAD phosphorylation at Ser-112 residue incubated for 4 hrs by ELISA; type: cell-based; settings: read-out: EC50
U-87 MG [13] = test: Antiproliferative activity against human U87MG assessed as combination index at 20 uM incubated for 72 hrs in presence of GI50 dose of Lapatinib by CellTiter-Glo luminescence assay; type: functional, U-87MG ATCC
SK-MEL19 = test: Antiproliferative activity against human SK-MEL-19 assessed as combination index at 5 uM incubated for 72 hrs in presence of GI50 dose of Lapatinib by CellTiter-Glo luminescence assay; type: functional
MDA-MB-231 [14] = test: Antiproliferative activity against human MDA-MB-231 assessed as combination index at 20 uM incubated for 72 hrs in presence of GI50 dose of Palbociclib by CellTiter-Glo luminescence assay; type: functional
JeKo-1 [15] = test: Antiproliferative activity against human JeKo1 assessed as combination index at 10 uM incubated for 72 hrs in presence of GI50 dose of Palbociclib by CellTiter-Glo luminescence assay; type: functional
[16] = Clearance in iv dosed Balb/c mouse administered as single dose measured after 0.08 to 4 hrs by HPLC/MS analysis relative to hepatic blood flow; type: ADME, organism-based; settings: in vivo

Compound: COCCN1CCOc2c1cnn1c(-c3ccc4cccc(NCC5CCNCC5)c4n3)nnc21
- CI (JeKo-1 [1]): 0.295
- CI (MIA PaCa-2 [2]): 0.069
- CI (DU-145): 0.0001
- CI (MIA PaCa-2 [3]): 0.075
- CI (PC-3 [4]): 0.313
- CI (MDA-MB-231 [5]): 0.0001
- GI50 (CAKI-1): 22.1 µM
- GI50 (PC-3 [6]): 17.1 µM
- GI50 (MIA PaCa-2 [7]): 17.4 µM
- GI50 (NCI-H522): 9.7 µM
- GI50 (U-87 MG [8]): 21.7 µM
- GI50 (U-251): 17.8 µM
- GI50 (SK-ES1): 7.38 µM
- GI50 (T84): 23.2 µM
- GI50 (SW-620): 8.73 µM
- GI50 (NAMALVA): 9.68 µM
- GI50 (MDA-MB-231 [9]): 21.2 µM
- GI50 (MCF7): 19.6 µM
- GI50 [10]: 10.2 µM
- GI50 (HL-60): 13.6 µM
- IC50 [11]: > 10 µM
- EC50 [12]: 0.262 µM
- CI (U-87 MG [13]): 0.43
- CI (SK-MEL19): 0.508
- CI (MDA-MB-231 [14]): 0.047
- CI (JeKo-1 [15]): 0.108
- CLH [16]: < 30%

From ChEMBL document CHEMBL4340512, “Discovery of novel triazolo[4,3-b]pyridazin-3-yl-quinoline derivatives as PIM inhibitors” (Eur J Med Chem, 2019)
